Measured values published in US10966996B2, “Glechoma longitube extract, preparation method for same, and use thereof in sugar reduction, weight loss, and lipid reduction” (SHANGHAI INSTITUTE OF MATERIA MEDICA CHINESE ACADEMY OF …, priority 2014, dated 2021).
Entries after “also recorded” stand apart in the source; their conditions may differ.

Assays:
hDGAT1 = biological target: T1, hDGAT1 (Homo sapiens, UniProt O75907); assay: inhibitory activity against hDGAT1 (CPM fluorescence); assay type: biochemical; conditions: for inhibition at 10 µM: read-out: Inhibition rate (%) (10 μM) against hDGAT1; for inhibition at 50 µM: read-out: Inhibition rate (%) (50 μM) against hDGAT1
T1 construct: made in house; host or cells: insect cells
T1 sequence (O75907 1-488): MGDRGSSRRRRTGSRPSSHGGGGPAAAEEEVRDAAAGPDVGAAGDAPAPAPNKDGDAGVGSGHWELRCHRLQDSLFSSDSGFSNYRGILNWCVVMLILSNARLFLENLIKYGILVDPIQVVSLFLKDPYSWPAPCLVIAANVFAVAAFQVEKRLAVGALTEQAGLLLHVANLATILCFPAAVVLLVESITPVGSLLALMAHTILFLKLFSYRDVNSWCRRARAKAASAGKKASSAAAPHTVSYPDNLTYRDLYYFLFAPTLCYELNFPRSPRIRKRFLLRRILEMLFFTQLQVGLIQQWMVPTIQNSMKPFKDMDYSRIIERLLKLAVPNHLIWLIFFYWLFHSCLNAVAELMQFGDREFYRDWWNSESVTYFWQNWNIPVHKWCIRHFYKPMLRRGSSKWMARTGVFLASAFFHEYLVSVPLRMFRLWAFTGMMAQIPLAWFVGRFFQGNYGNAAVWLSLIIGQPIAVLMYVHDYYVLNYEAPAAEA
Protocol: Experimental method: (1) the effect of the extract of Glechoma longituba (Nakai) Kupr., LQC-H-1, on serum triglyceride level was evaluated in acute hypertriglyceridemic mouse model; 6-week old male C57BL/KsJ mice (Shanghai Slac Laboratory Animal Company), 8 for each group, weight of 20±2 g, were fed according to SPF grade operation procedure and fasted overnight for 16 hours prior to experiment. Compounds of different concentrations were intragastric administrated to each administration group of mice, respectively. Equal volume of water was given to control group and blank group of mice. 30 mins later, 2 g/kg olive oil was intragastric administrated to administration group and control group of mice, while equal volume of water was given to blank group of mice. 2 hours later, blood was collected from orbital vein of each group of mice for the separation of serum, and concentration of triglyceride in the serum was measured; (2) inhibitory activity of the individual compounds separated from the extract of Glechoma longituba (Nakai) Kupr., LQC-H-1, against diacylglycerol acyltransferase (DGAT): human derived DGAT1 obtained by expression and purification with insect cells were pre-incubated together with the compounds, substrate diacylglycerol was added to initiate the reaction in the presence of coenzyme A, fluorescence signal generated by the combination of produced sulfydryl and CPM was measured, and the inhibitory activity of the compound against DGAT was calculated according to the following formula: Inhibition rate %=(OD blank−OD compound)/(OD blank−OD negative control)*100%
OD compound, OD blank, and OD negative control represented the fluorescence values from a compound well, a blank well, and a negative control well free of DGAT1 enzyme, and the concentrations of the compounds when the enzyme activity inhibition rate (%) reached 50% were set as IC50 value; (3) inhibitory activity of the individual compounds separated from the extract of Glechoma longituba (Nakai) Kupr., LQC-H-1, against pancrelipase: substrate p-Nitrophenyl acetate (Sigma, USA) was formulated to 1.35 mM with phosphate buffer (25 mM, pH 6.8); porcine pancrelipase (Sigma) was formulated to 10 mg/ml with phosphate buffer; brominated eneyne compounds were formulated to solutions of different concentrations with phosphate buffer. Then, 50 μl of 1.35 mM p-Nitrophenyl acetate (Sigma, USA) solution and 10 μl of test compounds of different concentrations were sequentially added into a 96-well plate and pre-incubated at 37° C. for 5 mins. Finally, 50 μl of 10 mg/ml pancrelipase (EC 3.1.1.3, Sigma, USA) was added and mixed. The reaction proceeded at 37° C. for further 20 mins Absorbance of each well was measured at 492 nm. The inhibition rates (%) of the test samples against pancrelipase were calculated based on the absorbance at 492 nm. The concentrations of the compounds when then enzyme activity inhibition rate (%) reached 50% was set as IC50 value. The inhibition rate (%) could be calculated according to the following formula: Inhibition rate (%)=[(A−B)−(C−D)]/(A−B)×100

C57BL/KsJ mice = assay: acute oral glucose tolerance test (OGTT) and blood insulin in mice; assay type: in vivo; conditions: for acute oral glucose tolerance in mice: both 100 mg/kg and 200 mg/kg; for acute oral glucose tolerance in mice, compared with Sitagliptin (10 mg/kg): higher dose (200 mg/kg)
Protocol: (§1) Oral glucose tolerance test (OGTT) method: 8-week old male C57BL/KsJ mice (Shanghai Slac Laboratory Animal Company), 8 for each group, weight of 20±2 g, were fed according to SPF grade operation procedure and fasted for 16 hours prior to experiment. Blood was collected from tail vein of each group of mice prior to experiment. Blood glucose concentrations were measured using Roche ACCU-CHEK glucometer and recorded as time 0. Different concentrations of the compound were intragastric administrated to each administration group of mice, respectively. Equal volume of distilled water was given to control group of mice. The dosage volume was 10 ml/kg. Half an hour after administration, 5 g/kg glucose was intragastric administrated to each group of mice. Blood glucose concentrations of each group of mice were measured and recorded at 20 mins, 40 mins, and 80 mins after the intragastric administration. OGTT curves were recorded. Areas under the curves (AUC) were calibrated with the data in blood glucose of mice to which glucose was not given (calibration group). ONE-WAY-ANOVA was used to compare significant difference between each group (Note: all the experimental methods for acute oral glucose tolerance test in the following activity examples are the same to the experimental method in Example 5, unless otherwise indicated). Blood was collected from tail vein at 20 mins after oral administration of glucose for mice. ELISA (kit was bought from Millipore, USA) was utilized for measuring blood insulin level of mice.

db/db mice [1] = assay: acute oral glucose tolerance in db/db mice; assay type: in vivo; conditions: 100 mg/kg
Protocol: as §1, with “Blood was collected from tail vein at 20 mins after oral administration of glucose for mice. ELISA (kit was bought from Millipore, USA) was utilized for measuring blood insulin level of mice.” left out

db/db mice [2] = assay: long term administration of Compound I in db/db mice; assay type: in vivo; conditions: 50 mg/kg once a day
Protocol: After the end of the acute experiment, each group of mice undergone long term administration experiment following the grouping in below: equal volume of distilled water was given to control group of mice; Compound I at the dosage of 50 mg/kg was given to administration group; DDP4 inhibitor, Sitagliptin, at 10 mg/kg was intragastric administrated to positive control group. Dosage volume was 10 ml/kg, once a day for 4 weeks. Weight, blood glucose, and dietary change of the mice were monitored every week. The improvement of diabetic symptom of spontaneous diabetes mellitus type 2 model db/db mice by long term administration of Compound I was evaluated.

[3] = two weeks after the administration

Row | Compound | inhibition at 10 µM (hDGAT1) [%] | inhibition at 50 µM (hDGAT1) [%] | acute oral glucose tolerance in mice (C57BL/KsJ mice) | acute oral glucose tolerance in mice, compared with Sitagliptin (10 mg/kg) (C57BL/KsJ mice) | acute oral glucose tolerance in db/db mice (db/db mice [1]) | weight and diet of the mice (db/db mice [2]) | fasting blood glucose (db/db mice [2]; [3]) | instant blood glucose (db/db mice [2]; [3])
1 | O=C(O)C1O[C@@H](OC2C(O)[C@H](O)C(C(=O)O)O[C@H]2Oc2cc(O)c3c(=O)cc(-c4ccc(O)c(O)c4)oc3c2)C(O)C(O)[C@@H]1O (stereo partly drawn) [Compound I, luteolin-7-O-[β-glucuronosyl(1→2)β-glucuronic acid]] | ~20 | > 50 | significantly enhance acute oral glucose tolerance | activity comparable to the commercial chemical drug, Sitagliptin | significantly enhances acute oral glucose tolerance | did not significantly affect the weight and diet of the mice | significantly decreased; also recorded: lowered fasting blood glucose of mice | significantly decreased; also recorded: lowered instant blood glucose of mice
2 | O=C(O)C1O[C@@H](OC2C(O)[C@H](O)C(C(=O)O)O[C@H]2Oc2cc(O)c3c(=O)cc(-c4ccc(O)cc4)oc3c2)C(O)C(O)[C@@H]1O (stereo partly drawn) [Compound II, apigenin-7-O-[β-glucuronosyl(1→2)β-glucuronic acid]] | ~20 | > 50 | significantly enhance acute oral glucose tolerance | activity comparable to the commercial chemical drug, Sitagliptin | – | – | – | –
